In ChEMBL document CHEMBL5260798, “Structural Analysis of Chemokine Receptor-Ligand Interactions” (J Med Chem, 2017):

Key:
[1] = molecular target: T1, C-X-C chemokine receptor type 3 (Homo sapiens, UniProt P49682); assay: Inhibition of human wild type CXCR3
T1 sequence (P49682 whole entry): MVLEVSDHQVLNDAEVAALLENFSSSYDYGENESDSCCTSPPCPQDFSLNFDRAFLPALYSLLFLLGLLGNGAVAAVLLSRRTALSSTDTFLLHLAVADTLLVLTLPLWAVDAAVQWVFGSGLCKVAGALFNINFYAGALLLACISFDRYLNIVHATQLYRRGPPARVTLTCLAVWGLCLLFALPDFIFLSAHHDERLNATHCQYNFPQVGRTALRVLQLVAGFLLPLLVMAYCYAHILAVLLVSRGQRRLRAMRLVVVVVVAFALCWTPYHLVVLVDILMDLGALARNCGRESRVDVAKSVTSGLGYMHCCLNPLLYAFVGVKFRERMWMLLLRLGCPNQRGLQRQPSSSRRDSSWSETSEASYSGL

[2] = molecular target: T1, C-X-C chemokine receptor type 3; assay: Inhibition of human recombinant CXCR3
[3] = Inhibition of CXCR4-Y251A mutant (unknown origin); design: species or system Homo sapiens
[4] = molecular target: C-X-C chemokine receptor type 4 (Homo sapiens, UniProt P61073); assay: Binding affinity to CXCR4 (unknown origin) assessed as inhibition constant
Sequence of C-X-C chemokine receptor type 4 (P61073 whole entry): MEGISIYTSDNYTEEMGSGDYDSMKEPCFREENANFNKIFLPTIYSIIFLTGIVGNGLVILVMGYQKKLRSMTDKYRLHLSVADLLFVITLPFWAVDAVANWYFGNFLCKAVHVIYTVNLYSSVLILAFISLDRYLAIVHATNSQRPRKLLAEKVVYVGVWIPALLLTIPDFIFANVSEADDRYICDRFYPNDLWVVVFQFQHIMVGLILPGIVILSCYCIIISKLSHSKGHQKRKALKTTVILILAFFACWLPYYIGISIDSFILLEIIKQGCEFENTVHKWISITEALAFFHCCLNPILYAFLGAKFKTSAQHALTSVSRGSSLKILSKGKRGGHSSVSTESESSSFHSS

[5] = molecular target: T2, C-X-C chemokine receptor type 2 (Homo sapiens, UniProt P25025); assay: Binding affinity to wild type human CXCR2 assessed as dissociation constant
T2 sequence (P25025 whole entry): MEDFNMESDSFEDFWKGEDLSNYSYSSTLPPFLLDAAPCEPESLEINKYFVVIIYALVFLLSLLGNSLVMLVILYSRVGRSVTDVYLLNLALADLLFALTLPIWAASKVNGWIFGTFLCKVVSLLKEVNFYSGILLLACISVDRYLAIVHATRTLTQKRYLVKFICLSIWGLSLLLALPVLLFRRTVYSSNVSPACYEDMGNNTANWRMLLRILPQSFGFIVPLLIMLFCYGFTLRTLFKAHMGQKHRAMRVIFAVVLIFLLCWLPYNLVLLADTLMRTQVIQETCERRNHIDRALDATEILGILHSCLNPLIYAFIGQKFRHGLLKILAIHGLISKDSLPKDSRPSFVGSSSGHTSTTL

[6] = molecular target: C-C chemokine receptor type 2 (Homo sapiens, UniProt P41597); assay: Binding affinity to CCR2 (unknown origin) assessed as inhibition constant
Sequence of C-C chemokine receptor type 2 (P41597 whole entry): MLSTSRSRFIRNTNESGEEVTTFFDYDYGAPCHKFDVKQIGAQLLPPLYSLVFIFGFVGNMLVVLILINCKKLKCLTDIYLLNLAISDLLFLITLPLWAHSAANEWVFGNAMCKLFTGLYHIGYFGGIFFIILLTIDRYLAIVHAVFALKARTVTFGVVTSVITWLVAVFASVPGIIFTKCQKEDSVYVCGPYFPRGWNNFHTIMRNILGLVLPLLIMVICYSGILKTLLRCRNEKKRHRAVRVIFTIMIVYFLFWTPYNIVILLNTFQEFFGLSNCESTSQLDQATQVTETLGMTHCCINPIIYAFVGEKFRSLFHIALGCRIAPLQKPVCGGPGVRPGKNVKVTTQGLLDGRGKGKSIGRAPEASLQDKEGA

[7] = molecular target: T3, C-C chemokine receptor type 5 (Homo sapiens, UniProt P51681); assay: Inhibition of wild type CCR5 (unknown origin)
T3 sequence (P51681 whole entry): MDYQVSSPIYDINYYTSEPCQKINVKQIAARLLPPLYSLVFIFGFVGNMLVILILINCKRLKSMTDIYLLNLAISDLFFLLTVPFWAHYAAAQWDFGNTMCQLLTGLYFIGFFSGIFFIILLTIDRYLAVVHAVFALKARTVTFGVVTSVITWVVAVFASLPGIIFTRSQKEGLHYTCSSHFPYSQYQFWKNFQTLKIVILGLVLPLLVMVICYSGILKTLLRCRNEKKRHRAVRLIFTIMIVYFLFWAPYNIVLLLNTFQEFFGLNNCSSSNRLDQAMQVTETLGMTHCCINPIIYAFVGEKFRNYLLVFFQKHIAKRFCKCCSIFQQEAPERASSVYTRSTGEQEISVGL

[8] = molecular target: T3, C-C chemokine receptor type 5; assay: Inhibition of human CCR5
[9] = Binding affinity to CXCR4-Y251A mutant (unknown origin) assessed as […]; design: species or system Homo sapiens
[10] = molecular target: C-C chemokine receptor type 8 (Homo sapiens, UniProt P51685); assay: Inhibition of CCR8 mutant (unknown origin)
Sequence of C-C chemokine receptor type 8 (P51685 whole entry, looked up, change not shown): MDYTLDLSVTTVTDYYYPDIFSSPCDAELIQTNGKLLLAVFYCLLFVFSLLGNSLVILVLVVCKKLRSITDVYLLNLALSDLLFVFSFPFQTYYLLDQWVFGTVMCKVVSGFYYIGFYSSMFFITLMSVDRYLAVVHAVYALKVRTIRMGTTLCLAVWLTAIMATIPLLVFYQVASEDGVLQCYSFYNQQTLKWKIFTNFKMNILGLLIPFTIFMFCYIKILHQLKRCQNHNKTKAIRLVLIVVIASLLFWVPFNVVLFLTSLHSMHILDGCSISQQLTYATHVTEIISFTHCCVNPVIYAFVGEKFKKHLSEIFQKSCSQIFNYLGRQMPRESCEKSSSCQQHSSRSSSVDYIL

For `CCOc1ccc(-n2c([C@@H](C)N(Cc3cccnc3)C(=O)Cc3ccc(F)c(C(F)(F)F)c3)nc3ncccc3c2=O)cc1`, which IC50 [1] is on record?
Its IC50 is 0.0631 µM.

What about the IC50 [2] of the same compound?
Its IC50 is 0.0631 µM.

For `CCCCN1C(=O)[C@H](CC2CCCCC2)NC(=O)C12CCN(Cc1ccc(Oc3ccc(C(=O)O)cc3)cc1)CC2`, which IC50 [3] is on record?
The IC50 was 0.0167 µM.

For `CCCN(CCC)CCCCN(C)Cc1ccc(CN(Cc2ncc[nH]2)Cc2nccn2C)cc1`, which Ki [4] is on record?
Its Ki is 0.00061 µM.

For `C(CCCN1CCCNCCNCCCNCC1)CCN1CCCNCCNCCCNCC1`, which Ki [4] is on record?
The Ki was 2.3 µM.

Which IC50 [3] does the source give for `CC(=O)N1CCC(C(=O)N(CCCN2CCC(Cc3ccc(C(N)=O)cc3)CC2)c2ccc(C)c(Cl)c2)CC1` here?
Its IC50 is 0.02 µM.

With `NCCCC[C@H](NC(=O)[C@@H]1Cc2ccccc2CN1C(=O)CCC(=O)c1ccccc1)C(=O)NCC(c1ccccc1)c1ccccc1` as the compound, how does the IC50 [1] read?
The IC50 was 1 µM.

For `C[C@H](NC(=O)[C@H](CCCNC(=N)N)NC(=O)c1ccc(CNCc2ccccn2)cc1)c1cccc2ccccc12`, which Ki [4] is on record?
Its Ki is 8 µM.

With `C[C@H](CO)Nc1nc(SCc2cccc(F)c2F)nc2[nH]c(=O)cnc12` as the compound, how does the Kd [5] read?
The Kd was 1 µM.

Which Ki [4] does the source give for `c1cc(CN2CCCNCCNCCCNCC2)cc(CN2CCCNCCNCCCNCC2)n1` here?
The Ki was 0.85 µM.

For `C1CNCCNCCCN(CCCN2CCCNCCNCCCNCC2)CCNC1`, which Ki [4] is on record?
The Ki was 0.18 µM.

With `Cc1ccc(CN2CC[C@@H](NC(=O)CNC(=O)c3cccc(C(F)(F)F)c3)C2)c(C)c1` as the compound, how does the Ki [6] read?
The Ki was 0.316 µM.

For `Cc1ccc(-c2ccc3c(c2)C=C(C(=O)Nc2ccc(C[N+](C)(C)C4CCOCC4)cc2)CCC3)cc1.[Cl-]`, which pIC50 [1] is on record?
The pIC50 was 4.5.

What about the Ki [6] of the same compound?
Its Ki is 0.0631 µM.

And the IC50 [3]?
The IC50 was 0.019 µM.

For `O=C(/C=C/c1ccc(Cl)c(Cl)c1)NCCCCCN1CCC(c2c[nH]c3ccc(O)cc23)CC1`, which Ki [6] is on record?
The Ki was 0.1 µM.

For `CCNC(=O)c1cnc(N2CCN(C3CCN(Cc4ccc(Cl)cc4)CC3)[C@@H](CC)C2)c(Cl)c1`, which IC50 [1] is on record?
Its IC50 is 0.0158 µM.

What about the IC50 [2] of the same compound?
Its IC50 is 0.0158 µM.

Which Kd [5] does the source give for `CC[C@@H](NC1C(=O)C(=O)C1Nc1cccc(C(=O)N(C)C)c1O)c1ccc(C)o1` (some centres not stated) here?
Its Kd is 10000 µM.

Which IC50 [7] does the source give for `CCCC[C@H]1C[C@@H](N(C)C(C)C)CC[C@H]1NC(=O)CNC(=O)c1cccc(C(F)(F)F)c1` here?
Its IC50 is 0.0025 µM.

With `O=C(C1=C(O)C(=O)N(c2nnc(SCc3ccc(Cl)cc3)s2)C1c1cccs1)c1cc2ccccc2o1` (configuration not stated) as the compound, how does the IC50 [8] read?
The IC50 was 2 µM.

For `O=CNC(=C(Cl)Cl)[P+](c1ccccc1)(c1ccccc1)c1ccccc1.[O-][Cl+3]([O-])([O-])[O-]`, which IC50 [9] is on record?
The IC50 was 27 µM.

For `COc1ccccc1Oc1cccc(CN2CCC(O)(c3ccccc3C(=O)O)CC2)c1`, which pIC50 [10] is on record?
The pIC50 was 7.5.

With `CCNS(=O)(=O)c1ccc(OC)cc1C1(O)CCN(Cc2cccc(Oc3ccccc3OC)c2)CC1` as the compound, how does the pIC50 [10] read?
Its pIC50 is 7.8.

With `COc1ccccc1Oc1cccc(CN2CCC(NC(=O)C3CC(=O)Nc4ccccc43)CC2)c1` (configuration not stated) as the compound, how does the pIC50 [10] read?
Its pIC50 is 7.3.

For `CCO/N=C(\c1ccc(Br)cc1)C1CCN(C2(C)CCN(C(=O)c3c(C)cc[n+]([O-])c3C)CC2)CC1` [ANCRIVIROC], which IC50 [9] is on record?
The IC50 was 0.016 µM.

With `Cc1nnc(C(C)C)n1[C@H]1C[C@H]2CC[C@@H](C1)N2CC[C@H](NC(=O)C1CCC(F)(F)CC1)c1ccccc1` [MARAVIROC] as the compound, how does the IC50 [3] read?
Its IC50 is 0.0002 µM.
